This note sets out measurements from US10517867B2, “Posaconazole derivative, pharmaceutical composition and use thereof” (priority 2016, dated 2019).

A short description of series [1]: In vitro metabolic stability in human plasma. It counts as in vitro ADME. The conditions noted are these: human, plasma, 37° C., 10 μM compound, read-out: Human plasma T1/2. How it is done:
(§1) This example detects the metabolic stability of the compounds of the present disclosure in human (rat) plasma and intestinal S9 in vitro. In a human (rat) plasma reaction system, 990 μl of human (rat) plasma was taken and incubated at 37° C. for 5 minutes, and 10 μl of the compound mother liquor was used to initiate the reaction. In the human (rat) intestinal S9 stability experiment, in the order shown in Table 2 below, the samples were added and incubated in a 37° C. water bath to initiate the reaction, each sample performed in triplicates. Respectively, at 1 minute, 2 minutes, 5 minutes, 15 minutes, 30 minutes after the reaction began, 100 μL of each was taken and added to a centrifuge tube containing 400 μL of 0° C. precooled internal standard working solution. The reaction was terminated, vortexed and mixed for 1 minute, centrifuged at 10000×g for 10 minutes in a 4° C. precooled high-speed centrifuge, and the supernatant was detected with HPLC. The test results were used to calculate metabolic half-life using WinNonlin (version 6.2 Pharsight, Mountain View, Calif.) with a non-compartmental model.
(§2) Compound stock solution concentration: 1 mM
(§3) Reaction matrix: human (rat) plasma, intestinal S9 purchased from Research Institute for Liver Diseases (Shanghai) Co., Ltd.

A short description of series [2]: In vitro metabolic stability in human intestine S9. As to conditions: human; 37° C., 10 μM compound, 1 mg/mL S9, NADPH regeneration system; read-out: Human intestine S9 T1/2. Format: in vitro ADME. On the procedure: as §1, §2, §3
Series [3] is described as follows: In vitro metabolic stability in rat plasma. The conditions noted are these: rat, plasma, 37° C., 10 μM compound, read-out: Rat plasma T1/2. Format: in vitro ADME. On the procedure: as §1, §2, §3
Series [4] in a line: In vitro metabolic stability in rat intestine S9. Format: in vitro ADME. As to conditions: rat, pH 7.4; 37° C., 10 μM compound, 1 mg/mL S9, NADPH regeneration system; read-out: Rat intestine S9 T1/2. How it is done:
as §1, §2, §3

Series [5] has as its system Candida albicans ATCC10231. Kind of series: Systemic fungal infection in mice, intravenous administration. Format: in vivo, ICR mice. How it is done: (§4) ICR mice, weighing 18-22 g, male, provided by Hubei Experimental Animal Center.
(§5) Prior to the experiment, a small amount of Candida albicans was picked from an SDA (sacharomyces agar, the same below) medium kept at 4° C. with an inoculation loop and inoculated into 1 ml YPD (Yeast Extract Peptone Dextrose Medium) culture medium, cultured at 30° C. with 200 rpm shaking and activated for 16 hours, so that the fungus was in the late stage of exponential growth. Counted with a hemocytometer and the fungal solution concentration was adjusted to 1×10^3-5×10^3 CFU/ml with RPMI1640 medium (Roswell Park Memorial Institute 1640, the same below). Monoclonal Candida albicans on SDA plate was picked up, inoculated into 1 ml YPD (Yeast Extract Peptone Dextrose Medium, the same below) culture medium, cultured at 35° C., 200 rpm for 16 hours until late exponential growth phase. Candida albicans was inoculated into fresh medium for culturing for 6 hours at 1%, centrifuged at 1000×g for 5 minutes, washed with physiological saline three times until the supernatant was colorless, counted with a hemocytometer, and the cell concentration was adjusted to 5×10^6 cells/ml. A tail vein injection of 0.1 ml/10 g caused a systemic fungal infection in mice. […] A total of 7 days of observations were performed. All dead mice were burned with ethanol.

Series [6] has as its system Candida albicans ATCC10231. Put plainly: Systemic fungal infection in mice, intragastric administration. As to conditions: Candida albicans, ATCC10231, po. Format: in vivo, ICR mice. How it is done:
as §4
as §5, with “SDA” for “SDA (sacharomyces agar, the same below)”, “YPD” for “YPD (Yeast Extract Peptone Dextrose Medium)”, “1×10^3 to 5×10^3” for “1×10^3-5×10^3”, “medium.” for “medium (Roswell Park Memorial Institute 1640, the same below).”

Series [7] is described as follows: Determination of solubility in deionized water (HPLC, external standard). The conditions noted are these: 25 °C, water, thermodynamic from solid.
Where [8] appears, read: 24 h, read-out: survival rate of mice, day 1.
[9] abbreviates: 48 h, read-out: survival rate of mice, day 2.
Setting [10] is: 72 h, read-out: survival rate of mice, day 3.
[11] abbreviates: 96 h, read-out: survival rate of mice, day 4.
Setting [12] is: 120 h, read-out: survival rate of mice, day 5.
Where [13] appears, read: 144 h, read-out: survival rate of mice, day 6.
The mark [14] stands for this setting: 168 h, read-out: survival rate of mice, day 7.
[15] abbreviates: 24 h, read-out: survival rate of mice, day 1, 20 mg/kg intragastric once daily for 5 days, day 1.
[16] abbreviates: 48 h, read-out: survival rate of mice, day 2, 20 mg/kg intragastric once daily for 5 days, day 2.
Setting [17] is: 72 h, read-out: survival rate of mice, day 3, 20 mg/kg intragastric once daily for 5 days, day 3.
Where [18] appears, read: 96 h, read-out: survival rate of mice, day 4, 20 mg/kg intragastric once daily for 5 days, day 4.
Setting [19] is: 120 h, read-out: survival rate of mice, day 5, 20 mg/kg intragastric once daily for 5 days, day 5.
Setting [20] is: 144 h, read-out: survival rate of mice, day 6, 20 mg/kg intragastric once daily for 5 days, day 6.
Setting [21] is: 168 h, read-out: survival rate of mice, day 7, 20 mg/kg intragastric once daily for 5 days, day 7.

As usually defined, the solubility is the dissolved amount per volume that the medium holds. High values mean much dissolved substance, low ones little dissolved substance.

Turning to `CC[C@@H]([C@H](C)OC(=O)OCOC(=O)CCCCCOP(=O)([O-])[O-])n1ncn(-c2ccc(N3CCN(c4ccc(OC[C@@H]5CO[C@@](Cn6cncn6)(c6ccc(F)cc6F)C5)cc4)CC3)cc2)c1=O.[Na+].[Na+]` [ST0073], the half-life at 10 µM was 0.92 ± 0.11 min in series [1], 16.2 ± 6.08 min in series [2], 0.75 ± 0.23 min in series [3] and 16 ± 8.96 min in series [4]. The responders at 20 mg/kg was found to be 100% in series [5] (setting [8]); 100% in series [5] (setting [9]); 100% in series [5] (setting [10]); 100% in series [5] (setting [11]); 90% in series [5] (setting [12]); 90% in series [5] (setting [13]). Moreover, the responders at 20 mg/kg was determined as 90% in series [5] (setting [14]); 100% in series [6] (setting [15]); 90% in series [6] (setting [16]); 80% in series [6] (setting [17]); 80% in series [6] (setting [18]); 80% in series [6] (setting [19]). The responders at 20 mg/kg in series [6] (setting [20]) and in series [6] (setting [21]) was 70% in each case. The compound further displayed a solubility at 30 min in series [7] of over 50 mg/mL.
With `CC[C@@H](C(C)OC(=O)OC(C)OC(=O)CCCOS(=O)(=O)[O-])n1ncn(-c2ccc(N3CCN(c4ccc(OC[C@@H]5CO[C@@](Cn6cncn6)(c6ccc(F)cc6F)C5)cc4)CC3)cc2)c1=O.[Na+]` (stereo partly drawn) [ST0077], the half-life at 10 µM in series [1] stood at 1.97 ± 1.29 min; in series [2] it was 21.3 ± 5.09 min; in series [3], 1.55 ± 0.56 min; in series [4] it was 19.3 ± 5.65 min. Besides, the responders at 20 mg/kg in series [5] (24 h, 20 mg/kg tail vein once daily for 5 days, day 1, read-out: survival rate of mice, day 1) is 100%; in series [5] (48 h, 20 mg/kg tail vein once daily for 5 days, day 2, read-out: survival rate of mice, day 2), 100%; in series [5] (72 h, 20 mg/kg tail vein once daily for 5 days, day 3, read-out: survival rate of mice, day 3), 100%; in series [5] (96 h, 20 mg/kg tail vein once daily for 5 days, day 4, read-out: survival rate of mice, day 4) it was 100%; in series [5] (120 h, 20 mg/kg tail vein once daily for 5 days, day 5, read-out: survival rate of mice, day 5) it was 90%; in series [5] (144 h, 20 mg/kg tail vein once daily for 5 days, day 6, read-out: survival rate of mice, day 6) it was 90%. In addition, the responders at 20 mg/kg was determined as 90% in series [5] (168 h, 20 mg/kg tail vein once daily for 5 days, day 7, read-out: survival rate of mice, day 7); 100% in series [6] (24 h, 20 mg/kg intragastric once daily for 5 days, day 1, read-out: survival rate of mice, day 1); 90% in series [6] (48 h, 20 mg/kg intragastric once daily for 5 days, day 2, read-out: survival rate of mice, day 2); 80% in series [6] (72 h, 20 mg/kg intragastric once daily for 5 days, day 3, read-out: survival rate of mice, day 3); 80% in series [6] (96 h, 20 mg/kg intragastric once daily for 5 days, day 4, read-out: survival rate of mice, day 4); 80% in series [6] (120 h, 20 mg/kg intragastric once daily for 5 days, day 5, read-out: survival rate of mice, day 5). Besides, the responders at 20 mg/kg worked out at 70% in series [6] (144 h, 20 mg/kg intragastric once daily for 5 days, day 6, read-out: survival rate of mice, day 6) and 70% in series [6] (168 h, 20 mg/kg intragastric once daily for 5 days, day 7, read-out: survival rate of mice, day 7). Also, the solubility at 30 min in series [7] was over 50 mg/mL.
For `CC[C@@H](C(C)OC(=O)OC(C)OC(=O)CCCCCCOP(=O)([O-])[O-])n1ncn(-c2ccc(N3CCN(c4ccc(OC[C@@H]5CO[C@@](Cn6cncn6)(c6ccc(F)cc6F)C5)cc4)CC3)cc2)c1=O.[Na+].[Na+]` (stereo partly drawn) [ST0070], the half-life at 10 µM in series [1] came to 0.95 ± 0.31 min; in series [2], 20.2 ± 8.02 min; in series [3] it was 1.12 ± 0.56 min; in series [4], 17.6 ± 5.85 min. Moreover, the responders at 20 mg/kg amounted to 100% in series [5] (setting [8]); 90% in series [5] (setting [9]); 90% in series [5] (setting [10]); 90% in series [5] (setting [11]); 90% in series [5] (setting [12]); 90% in series [5] (setting [13]). Moreover, the responders at 20 mg/kg in series [5] (setting [14]) was 90%; in series [6] (setting [15]), 100%; in series [6] (setting [16]), 90%; in series [6] (setting [17]) it was 90%; in series [6] (setting [18]), 90%; in series [6] (setting [19]), 80%. For the same compound, the responders at 20 mg/kg in series [6] (setting [20]) and in series [6] (setting [21]) was 70% throughout. The solubility at 30 min in series [7] was over 50 mg/mL.
